AC50, IC50 and EC50 data for 13 compounds are collected here from ChEMBL document CHEMBL1201862, “PubChem BioAssay data set” (2004).

The term AC50 denotes the concentration at which the activity in the assay is half-maximal. What is called EC50 is the concentration at which the effect is half-maximal.

Calls of active or inactive are those of the source.

The nature of test [1]: bead-based luminescence quenchers, dual-tagged ARNT – biochemical, AlphaScreen, cherry-pick, artefact control for ARNT-TACC3 interaction inhibitor project, dose response (AID 651705).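 Further: AlphaScreen bead proximity signal that flags compounds interfering with the detection technology; potency reflects signal decrease which marks the compound as an assay artifact.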 Type of test: functional. On the technique in general: In Alpha technology, singlet oxygen from a donor bead excites a nearby acceptor bead.
Test [2] has as its target T1, Small ubiquitin-related modifier 1 (Homo sapiens, UniProt P63165). Kind of test: SUMO1 protein interaction blockers, potency – biochemical, fluorescence polarization, uHTS hits, dose response (AID 624382). The test is classed as functional. To be noted: read-out: IC50_Mean. In general terms: In fluorescence polarisation assays a small probe gives low polarisation when free and higher when bound to something large.

In test [3] the target is T1, Small ubiquitin-related modifier 1. Kind of test: SUMO1 protein-protein binding blockers, potency – biochemical, FRET, dose response (AID 624383). The test is classed as functional. The following applies: read-out: IC50_Mean.
In test [4] the target is Cytochrome P450 2C9 (Homo sapiens, UniProt P11712).
Test [5] is described as follows: inhibition of ARNT PAS-B/TACC3 complex formation – biochemical, AlphaScreen, cherry-picked samples, confirmation (AID 651703).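 Further: His-tagged ARNT PAS-B domain paired with GST-TACC3 E629A dimer coactivator fragment; potency of inhibitors that break up the complex and lower AlphaScreen signal.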 Type of test: functional, Homo sapiens.
The target of test [6] is Cytochrome P450 2D6 (Homo sapiens, UniProt P10635).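 Further: CYP2D6 member of a cytochrome P450 panel assay.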
Test [7] addresses Cytochrome P450 2C19 (Homo sapiens, UniProt P33261). Kind of test: Cytochrome panel assay with activity outcomes. Panel member name: p450-cyp2c19 Compounds with AC50 equal or less than 10 uM are considered active. To be noted: read-out: AC50. Type of test: functional.
The target of test [8] is T2, Tyrosine-protein phosphatase non-receptor type 22 (Homo sapiens, UniProt Q9Y2R2).
T2 sequence (Q9Y2R2 whole entry): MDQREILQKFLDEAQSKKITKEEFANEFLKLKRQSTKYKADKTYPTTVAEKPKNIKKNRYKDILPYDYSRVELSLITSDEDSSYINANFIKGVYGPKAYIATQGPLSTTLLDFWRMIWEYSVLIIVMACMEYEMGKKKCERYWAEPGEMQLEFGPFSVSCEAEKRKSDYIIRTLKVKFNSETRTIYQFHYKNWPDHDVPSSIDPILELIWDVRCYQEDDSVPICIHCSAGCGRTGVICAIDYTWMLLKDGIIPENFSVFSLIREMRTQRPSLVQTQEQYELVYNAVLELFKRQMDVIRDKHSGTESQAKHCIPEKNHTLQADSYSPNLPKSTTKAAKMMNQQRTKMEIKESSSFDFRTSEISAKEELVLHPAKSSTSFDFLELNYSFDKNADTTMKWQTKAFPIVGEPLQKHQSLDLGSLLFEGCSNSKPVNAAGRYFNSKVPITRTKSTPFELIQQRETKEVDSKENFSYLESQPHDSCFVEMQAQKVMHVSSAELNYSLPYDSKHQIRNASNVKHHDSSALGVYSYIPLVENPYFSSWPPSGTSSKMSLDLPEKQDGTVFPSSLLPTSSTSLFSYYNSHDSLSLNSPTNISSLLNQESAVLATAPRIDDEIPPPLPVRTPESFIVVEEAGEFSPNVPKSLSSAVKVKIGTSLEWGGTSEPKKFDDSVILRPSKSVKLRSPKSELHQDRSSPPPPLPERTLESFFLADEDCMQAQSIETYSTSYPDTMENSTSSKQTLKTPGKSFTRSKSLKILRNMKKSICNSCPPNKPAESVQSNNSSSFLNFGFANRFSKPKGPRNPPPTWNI
Put plainly: PTPN22 enzyme inhibitors – biochemical, fluorescence, LYP catalytic domain, selectivity assay for LMPTP inhibitor project, dose response (AID 652006). The test is classed as functional. The following applies: read-out: IC50_Mean.

Test [9] has as its target T3, Short transient receptor potential channel 4 (Mus musculus, UniProt Q9QUQ5).
T3 sequence (Q9QUQ5 whole entry): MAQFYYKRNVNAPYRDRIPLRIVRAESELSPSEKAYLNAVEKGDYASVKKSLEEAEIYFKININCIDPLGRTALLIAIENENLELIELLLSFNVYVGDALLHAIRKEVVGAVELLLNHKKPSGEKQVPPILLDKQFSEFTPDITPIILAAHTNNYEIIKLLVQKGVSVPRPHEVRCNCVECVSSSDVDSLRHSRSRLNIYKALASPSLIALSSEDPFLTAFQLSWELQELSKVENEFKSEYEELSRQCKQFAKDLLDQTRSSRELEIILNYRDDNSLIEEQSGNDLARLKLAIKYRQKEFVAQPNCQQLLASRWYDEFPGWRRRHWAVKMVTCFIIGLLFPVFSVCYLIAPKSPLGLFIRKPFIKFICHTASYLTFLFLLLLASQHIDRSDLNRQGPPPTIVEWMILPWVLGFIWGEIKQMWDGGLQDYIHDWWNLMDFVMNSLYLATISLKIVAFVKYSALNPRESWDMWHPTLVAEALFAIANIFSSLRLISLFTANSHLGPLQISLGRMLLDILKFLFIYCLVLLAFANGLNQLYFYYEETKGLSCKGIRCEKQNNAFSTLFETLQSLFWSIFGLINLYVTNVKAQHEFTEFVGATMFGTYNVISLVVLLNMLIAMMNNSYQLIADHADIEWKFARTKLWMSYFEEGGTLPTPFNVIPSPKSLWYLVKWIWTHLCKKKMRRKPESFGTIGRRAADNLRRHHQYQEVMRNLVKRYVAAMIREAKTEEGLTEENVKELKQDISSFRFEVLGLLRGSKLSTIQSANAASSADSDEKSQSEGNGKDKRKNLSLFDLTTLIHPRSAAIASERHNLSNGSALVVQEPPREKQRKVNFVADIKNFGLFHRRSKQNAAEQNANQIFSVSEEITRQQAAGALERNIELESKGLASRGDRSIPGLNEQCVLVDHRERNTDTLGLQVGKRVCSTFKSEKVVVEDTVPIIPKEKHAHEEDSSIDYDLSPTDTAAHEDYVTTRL
Put plainly: calcium entry via TRPC4 opening agents – cell-based, HEK293 TRPC4/mu-opioid, Fluo-4 calcium, dose response (AID 434937). Type of test: functional.

Test [10] has as its target T4, Low molecular weight phosphotyrosine protein phosphatase (Homo sapiens, UniProt P24666).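 Further: Dose-response confirmation assay measuring inhibition of LMPTP enzyme activity by fluorescence intensity read-out.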
T4 sequence (P24666 whole entry): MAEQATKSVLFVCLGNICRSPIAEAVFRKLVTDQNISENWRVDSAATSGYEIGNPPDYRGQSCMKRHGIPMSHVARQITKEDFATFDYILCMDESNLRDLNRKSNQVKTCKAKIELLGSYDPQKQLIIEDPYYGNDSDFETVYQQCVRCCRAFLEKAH
Type of test: functional. To be noted: read-out: IC50_Mean.

The target of test [11] is Ras and Rab interactor 1/Tyrosine-protein kinase ABL1 (Homo sapiens, UniProt P00519+Q13671). The test is classed as functional.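 Further: biochemical TR-FRET dose-response test measuring inhibition of binding between Rin1 and Abl proteins.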
Test [12] has as its target Photoreceptor-specific nuclear receptor (Homo sapiens, UniProt Q9Y5X4). The test is classed as functional, cell-based.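 Further: CHO-S cells with Gal4-NCOR and VP16-NR2E3 two-hybrid luciferase reporter.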
The target in test [13] is Luciferin 4-monooxygenase (Photinus pyralis, UniProt P08659). Put plainly: Counter Screen for Luciferase-based Assay Positives. [Related pubchem assays: 620, 618, 411 ]. On the technique in general: A counterscreen serves to expose hits that act by an unwanted route or on another target.
Test [14] deals with HT-1080. Put plainly: HT1080 cell viability loss – fluorescence readout (AID 620). The test is classed as functional, cell-based. To be noted: Homo sapiens.
Test [15] in a line: cAMP pathway inhibition in counterscreen cell line – TR-FRET cAMP detection, counter-screen for MC4R biased antagonist project, dose response (AID 602305).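 Further: U2OS cells stimulated with forskolin near its EC80 as the cAMP inducer; potency is for inhibition of forskolin-stimulated cAMP signaling.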 Type of test: functional, cell-based.
For test [16], the target named is Melanocortin receptor 4 (Homo sapiens, UniProt P32245). Put plainly: inhibitors of MC4R cAMP signaling – cell-based, TR-FRET, biased antagonists, dose response (AID 602298).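 Further: antagonist potency against agonist-stimulated cAMP production.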 The test is classed as functional.
Test [17] deals with T5, Aminopeptidase N (Plasmodium falciparum FcB1/Columbia, UniProt O96935).
T5 sequence (O96935 whole entry): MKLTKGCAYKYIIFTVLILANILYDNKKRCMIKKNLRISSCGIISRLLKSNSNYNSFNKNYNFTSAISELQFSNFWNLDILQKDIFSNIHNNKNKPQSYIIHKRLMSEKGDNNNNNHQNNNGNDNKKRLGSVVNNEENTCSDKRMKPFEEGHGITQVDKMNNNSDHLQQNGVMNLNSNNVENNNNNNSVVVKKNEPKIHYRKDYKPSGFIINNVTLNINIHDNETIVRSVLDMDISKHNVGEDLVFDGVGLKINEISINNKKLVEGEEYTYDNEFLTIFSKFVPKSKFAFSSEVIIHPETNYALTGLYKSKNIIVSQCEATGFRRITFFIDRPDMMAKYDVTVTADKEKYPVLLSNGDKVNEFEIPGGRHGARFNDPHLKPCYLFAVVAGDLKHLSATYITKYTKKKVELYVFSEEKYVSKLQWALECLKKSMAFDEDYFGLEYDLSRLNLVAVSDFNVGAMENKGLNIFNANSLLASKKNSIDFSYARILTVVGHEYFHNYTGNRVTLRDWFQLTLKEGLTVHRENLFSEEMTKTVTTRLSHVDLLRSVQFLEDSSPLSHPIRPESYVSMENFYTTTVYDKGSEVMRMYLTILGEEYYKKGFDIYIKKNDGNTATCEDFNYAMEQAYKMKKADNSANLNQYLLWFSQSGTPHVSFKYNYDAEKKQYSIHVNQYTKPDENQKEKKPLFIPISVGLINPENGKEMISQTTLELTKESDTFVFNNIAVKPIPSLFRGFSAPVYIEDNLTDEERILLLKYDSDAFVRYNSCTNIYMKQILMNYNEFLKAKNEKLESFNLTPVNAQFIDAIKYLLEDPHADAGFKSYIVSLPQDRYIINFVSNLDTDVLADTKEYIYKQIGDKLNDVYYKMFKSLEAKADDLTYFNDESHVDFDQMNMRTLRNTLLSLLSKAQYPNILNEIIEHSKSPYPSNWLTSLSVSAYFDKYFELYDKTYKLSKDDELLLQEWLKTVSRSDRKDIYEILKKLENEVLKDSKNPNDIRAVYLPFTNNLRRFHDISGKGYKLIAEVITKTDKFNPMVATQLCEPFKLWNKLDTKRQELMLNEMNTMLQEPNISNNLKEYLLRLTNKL
Put plainly: malaria alanyl aminopeptidase activity blockers – biochemical, fluorogenic H-Leu-NHMec substrate, 1536-well (AID 1445). Details: species or system Plasmodium falciparum 3D7, 3D7.

Test [18] deals with Streptococcus. Kind of test: GAS UMAA2166 growth inhibition – luminescence, BacTiterGlo, counter-screen for streptokinase expression inhibitor project, dose response (AID 1915).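 Further: potency for reduction of bacterial viability or growth.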 Type of test: functional, organism-based.
In test [19] the target is T6, Probable nicotinate-nucleotide adenylyltransferase (Staphylococcus aureus (strain N315), UniProt P65502). The test is classed as functional, Staphylococcus aureus subsp. aureus N315.
The target in test [20] is T6, Probable nicotinate-nucleotide adenylyltransferase. Type of test: functional, Staphylococcus aureus subsp. aureus N315. To be noted: read-out: IC50_Mean.
The subject of test [21] is Streptococcus sp. 'group A'. Put plainly: Streptococcus pyogenes SK(-)GAS viability under kanamycin – luminescence, BacTiterGlo, confirmation, counter-screen for streptokinase expression inhibitor project, dose response (AID 1900). The test is classed as functional, organism-based.
The target in test [22] is ADP-ribosylation factor GTPase-activating protein 1 (Rattus norvegicus, UniProt Q62848). Kind of test: Fluorescence polarization-based biochemical high throughput dose response screening assay to identify inhibitors of ADP-ribosylation factor GTPase activating protein 1 (ARFGAP1). Type of test: functional.

Ras and Rab interactor 1/Tyrosine-protein kinase ABL1, sequence (P00519 whole entry, the tested form may be a part): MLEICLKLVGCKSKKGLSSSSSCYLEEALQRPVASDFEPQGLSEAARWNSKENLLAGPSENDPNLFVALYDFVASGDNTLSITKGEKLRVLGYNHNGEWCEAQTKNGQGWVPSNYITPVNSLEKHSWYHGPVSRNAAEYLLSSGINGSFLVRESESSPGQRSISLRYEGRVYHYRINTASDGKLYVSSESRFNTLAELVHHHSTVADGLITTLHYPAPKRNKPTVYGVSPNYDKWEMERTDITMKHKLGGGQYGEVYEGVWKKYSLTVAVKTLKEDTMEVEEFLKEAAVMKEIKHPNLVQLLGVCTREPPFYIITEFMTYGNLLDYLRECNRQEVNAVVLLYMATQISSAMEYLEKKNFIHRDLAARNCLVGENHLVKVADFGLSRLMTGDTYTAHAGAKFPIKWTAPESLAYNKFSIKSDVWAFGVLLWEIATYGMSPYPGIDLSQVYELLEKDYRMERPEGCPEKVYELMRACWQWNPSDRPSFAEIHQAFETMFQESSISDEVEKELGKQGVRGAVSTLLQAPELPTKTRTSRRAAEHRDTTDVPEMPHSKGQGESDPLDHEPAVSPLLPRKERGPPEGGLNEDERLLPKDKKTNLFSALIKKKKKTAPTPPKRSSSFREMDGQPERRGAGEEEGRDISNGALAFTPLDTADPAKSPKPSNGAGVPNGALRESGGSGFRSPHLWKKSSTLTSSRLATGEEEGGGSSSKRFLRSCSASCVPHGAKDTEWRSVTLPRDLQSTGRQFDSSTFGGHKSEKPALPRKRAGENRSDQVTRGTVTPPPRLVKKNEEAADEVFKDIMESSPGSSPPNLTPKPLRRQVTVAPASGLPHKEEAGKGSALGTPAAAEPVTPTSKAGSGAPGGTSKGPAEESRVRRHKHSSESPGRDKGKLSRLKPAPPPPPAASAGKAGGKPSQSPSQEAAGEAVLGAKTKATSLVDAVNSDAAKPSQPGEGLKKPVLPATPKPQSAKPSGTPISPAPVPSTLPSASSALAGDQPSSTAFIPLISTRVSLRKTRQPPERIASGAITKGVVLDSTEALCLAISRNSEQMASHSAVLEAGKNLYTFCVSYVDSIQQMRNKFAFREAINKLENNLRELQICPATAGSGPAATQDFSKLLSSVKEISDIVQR
Ras and Rab interactor 1/Tyrosine-protein kinase ABL1, sequence (Q13671 whole entry, the tested form may be a part): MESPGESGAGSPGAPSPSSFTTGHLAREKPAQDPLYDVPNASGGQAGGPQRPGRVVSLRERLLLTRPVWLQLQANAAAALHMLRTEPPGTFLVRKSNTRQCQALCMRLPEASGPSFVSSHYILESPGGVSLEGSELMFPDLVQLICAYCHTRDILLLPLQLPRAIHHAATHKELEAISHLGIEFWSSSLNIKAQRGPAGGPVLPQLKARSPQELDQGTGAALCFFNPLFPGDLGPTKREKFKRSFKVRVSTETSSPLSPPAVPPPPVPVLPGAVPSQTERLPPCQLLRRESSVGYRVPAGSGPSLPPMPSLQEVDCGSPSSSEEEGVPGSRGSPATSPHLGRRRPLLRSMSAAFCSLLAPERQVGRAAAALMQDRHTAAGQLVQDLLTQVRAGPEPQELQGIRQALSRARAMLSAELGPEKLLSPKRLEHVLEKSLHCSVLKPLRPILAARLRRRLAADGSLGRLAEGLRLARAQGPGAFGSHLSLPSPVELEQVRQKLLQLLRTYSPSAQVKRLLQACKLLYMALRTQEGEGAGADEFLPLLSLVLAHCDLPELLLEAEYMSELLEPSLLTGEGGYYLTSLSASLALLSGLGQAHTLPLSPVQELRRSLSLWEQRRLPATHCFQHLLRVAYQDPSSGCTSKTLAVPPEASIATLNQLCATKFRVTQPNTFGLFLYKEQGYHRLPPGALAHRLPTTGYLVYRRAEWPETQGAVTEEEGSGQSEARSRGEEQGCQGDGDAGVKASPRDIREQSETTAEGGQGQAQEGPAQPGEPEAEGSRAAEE
T1 sequence (P63165 whole entry): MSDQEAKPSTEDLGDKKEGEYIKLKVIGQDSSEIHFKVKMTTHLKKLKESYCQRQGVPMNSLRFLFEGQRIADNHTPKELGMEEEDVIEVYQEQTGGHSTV
Photoreceptor-specific nuclear receptor, sequence (Q9Y5X4 whole entry, the tested form may be a part): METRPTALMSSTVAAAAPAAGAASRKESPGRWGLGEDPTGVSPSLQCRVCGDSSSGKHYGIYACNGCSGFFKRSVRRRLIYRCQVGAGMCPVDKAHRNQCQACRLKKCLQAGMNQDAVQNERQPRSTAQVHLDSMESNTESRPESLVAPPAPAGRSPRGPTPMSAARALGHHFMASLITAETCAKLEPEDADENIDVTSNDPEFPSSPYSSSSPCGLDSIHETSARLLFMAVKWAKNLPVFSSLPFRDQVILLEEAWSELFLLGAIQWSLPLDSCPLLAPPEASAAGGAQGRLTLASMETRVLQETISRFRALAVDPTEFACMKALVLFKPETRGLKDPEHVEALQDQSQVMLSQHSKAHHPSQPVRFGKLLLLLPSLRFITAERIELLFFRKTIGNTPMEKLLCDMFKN
T6 sequence (P65502 whole entry): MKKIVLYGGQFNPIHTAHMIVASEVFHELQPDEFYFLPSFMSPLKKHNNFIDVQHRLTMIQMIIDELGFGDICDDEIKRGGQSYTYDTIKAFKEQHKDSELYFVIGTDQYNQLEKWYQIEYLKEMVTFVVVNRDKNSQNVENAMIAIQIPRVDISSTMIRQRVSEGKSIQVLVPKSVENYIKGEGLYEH
Cytochrome P450 2C19, sequence (P33261 whole entry): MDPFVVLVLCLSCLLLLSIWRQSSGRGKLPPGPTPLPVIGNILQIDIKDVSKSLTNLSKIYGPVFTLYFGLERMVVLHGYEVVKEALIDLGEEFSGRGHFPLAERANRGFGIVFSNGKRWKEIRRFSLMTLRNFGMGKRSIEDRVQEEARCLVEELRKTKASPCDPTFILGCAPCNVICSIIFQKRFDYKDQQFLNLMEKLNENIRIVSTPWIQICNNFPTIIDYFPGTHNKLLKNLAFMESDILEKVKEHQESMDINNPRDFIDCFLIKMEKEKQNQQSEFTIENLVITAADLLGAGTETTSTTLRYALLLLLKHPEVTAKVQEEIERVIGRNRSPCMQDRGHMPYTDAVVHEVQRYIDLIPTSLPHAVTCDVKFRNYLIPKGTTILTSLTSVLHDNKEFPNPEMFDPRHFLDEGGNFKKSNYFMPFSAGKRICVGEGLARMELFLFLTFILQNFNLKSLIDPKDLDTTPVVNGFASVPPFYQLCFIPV
Cytochrome P450 2C9, sequence (P11712 whole entry, the tested form may be a part): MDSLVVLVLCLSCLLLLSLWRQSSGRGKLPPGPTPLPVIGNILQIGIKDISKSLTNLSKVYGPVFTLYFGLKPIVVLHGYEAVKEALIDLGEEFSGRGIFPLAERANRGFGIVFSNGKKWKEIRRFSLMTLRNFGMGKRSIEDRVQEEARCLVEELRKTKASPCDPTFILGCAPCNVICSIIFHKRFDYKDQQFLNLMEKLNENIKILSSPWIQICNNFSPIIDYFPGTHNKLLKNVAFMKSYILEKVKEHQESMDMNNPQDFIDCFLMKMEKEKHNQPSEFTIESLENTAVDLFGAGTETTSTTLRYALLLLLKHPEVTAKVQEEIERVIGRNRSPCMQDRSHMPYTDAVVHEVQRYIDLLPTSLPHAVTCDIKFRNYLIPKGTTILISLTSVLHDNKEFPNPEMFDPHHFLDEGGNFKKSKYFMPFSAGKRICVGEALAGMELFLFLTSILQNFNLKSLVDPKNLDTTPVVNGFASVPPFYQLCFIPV
Luciferin 4-monooxygenase, sequence (P08659 whole entry): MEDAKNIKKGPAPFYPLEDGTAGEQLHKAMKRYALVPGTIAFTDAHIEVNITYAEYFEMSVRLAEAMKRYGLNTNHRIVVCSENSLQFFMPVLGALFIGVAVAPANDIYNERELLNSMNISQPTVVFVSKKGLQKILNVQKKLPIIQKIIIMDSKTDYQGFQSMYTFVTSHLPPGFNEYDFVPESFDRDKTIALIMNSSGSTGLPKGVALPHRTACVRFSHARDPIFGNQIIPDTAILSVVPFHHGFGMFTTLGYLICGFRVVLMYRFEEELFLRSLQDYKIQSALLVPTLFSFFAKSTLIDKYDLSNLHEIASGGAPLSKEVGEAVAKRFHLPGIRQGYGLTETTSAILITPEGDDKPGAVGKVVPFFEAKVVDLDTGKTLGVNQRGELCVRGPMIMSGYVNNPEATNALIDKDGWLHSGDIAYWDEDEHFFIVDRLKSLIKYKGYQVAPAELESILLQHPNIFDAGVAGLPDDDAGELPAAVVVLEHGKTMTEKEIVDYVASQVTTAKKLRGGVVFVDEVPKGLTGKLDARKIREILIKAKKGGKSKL
Melanocortin receptor 4, sequence (P32245 whole entry): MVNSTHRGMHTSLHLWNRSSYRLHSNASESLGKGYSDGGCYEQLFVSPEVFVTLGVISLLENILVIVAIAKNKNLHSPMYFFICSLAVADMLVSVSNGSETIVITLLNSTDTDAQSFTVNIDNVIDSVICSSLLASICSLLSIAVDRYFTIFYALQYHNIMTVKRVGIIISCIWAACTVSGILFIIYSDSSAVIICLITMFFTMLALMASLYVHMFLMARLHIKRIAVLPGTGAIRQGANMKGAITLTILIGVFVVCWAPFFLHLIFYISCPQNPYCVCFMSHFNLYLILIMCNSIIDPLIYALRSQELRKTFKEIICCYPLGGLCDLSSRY
Cytochrome P450 2D6, sequence (P10635 whole entry): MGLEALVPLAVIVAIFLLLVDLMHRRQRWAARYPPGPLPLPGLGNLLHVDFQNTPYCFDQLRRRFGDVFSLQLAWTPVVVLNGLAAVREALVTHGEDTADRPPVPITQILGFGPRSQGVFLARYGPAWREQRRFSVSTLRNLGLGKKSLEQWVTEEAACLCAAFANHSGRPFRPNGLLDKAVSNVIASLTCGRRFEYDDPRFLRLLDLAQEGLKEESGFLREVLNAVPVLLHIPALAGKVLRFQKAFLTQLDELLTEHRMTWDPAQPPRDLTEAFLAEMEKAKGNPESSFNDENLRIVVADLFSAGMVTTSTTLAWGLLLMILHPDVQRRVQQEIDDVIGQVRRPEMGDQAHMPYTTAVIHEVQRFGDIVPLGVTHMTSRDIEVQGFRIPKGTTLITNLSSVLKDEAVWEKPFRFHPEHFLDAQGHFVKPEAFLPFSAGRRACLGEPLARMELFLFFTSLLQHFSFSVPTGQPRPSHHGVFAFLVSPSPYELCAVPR

`Cc1ccccc1N1C(=O)NC(=O)/C(=C\NNC(=O)c2ccncc2)C1=O`: the AC50 in test [1] was 114 µM (active).

For `C/C=C/C=C\C(=O)Nc1cccc(C2=NOC3(C2)C[C@H](C(N)=O)N(C(=O)CC#N)C3)c1` (stereo partly specified), the values for the IC50 in test [2] and in test [3] were > 66.6 µM (inactive) and 3.34 µM (active), respectively.

Regarding `CCCN(C(=O)Cc1n[nH]c(N)n1)C1(C(=O)Nc2ccccc2C)CCCCC1`, the AC50 in [4] is 0.224 µM (inconclusive); in [5] it was 90.8 µM (active); in [6], 17.8 µM (inconclusive); in test [7] it was 20 µM (inconclusive).

For `CC(Nc1nc(N2CCNCC2)nc2ccccc12)c1ccccc1` (stereo unspecified), the results for the IC50 in [8] and in [10] were 37.9 µM (inactive) and 13.8 µM (active), respectively. In addition, in test [9], the concentration giving a half-maximal response (EC50) was 5.31 µM (active).

Consider `CCCCSCc1[nH]c(O)nc1C(=O)CCCCC(=O)OCC`, for which the IC50 in test [11] is 4.76 µM (active).

With `Cc1cc(NC(=O)CC(C)C)c(=O)n(Cc2ccccc2F)c1`, the AC50 in test [1] was 130 µM (active).

On to `Cc1nc2ccc(S(=O)(=O)Nc3cccc(-c4nc5cccnc5s4)c3)cc2s1`, for which the IC50 in test [12] is 2.01 µM (active).

In the case of `N#Cc1cc2c(nc1SCC(=O)Nc1nccs1)CCCCC2`, the values for the EC50 in test [13] and in test [14] were > 100 µM (not active) and > 50 µM (not active), respectively. Besides, the IC50 in [15] was 14.9 µM (inactive); in test [16], 11.8 µM (inactive).

Take `COc1ccc(NC(=O)CSc2nc(O)c3c(C(F)(F)F)cc(-c4cccs4)nc3n2)c(OC)c1`: the IC50 was 56.5 µM (active) in [17], 4.89 µM (active) in test [19] and 32.1 µM (active) in test [20]. In addition, the EC50 in [18] is 124 µM (active); in test [21] it was 11.6 µM (active).

Consider `O=C(Nc1cccc(OC(F)(F)F)c1)C1Cc2c(-c3ccc4c(c3)OCO4)ccnc2O1` (stereo unspecified), for which the IC50 in test [12] was 3.19 µM (active).

Consider `CN(CCc1ccccc1)C(=O)c1ccc(NC(=O)Cc2ccc(NC(=O)C3CCN(C(=O)C4CCC4)CC3)cc2)cc1`, for which, in [11], the IC50 is 16.9 µM (inactive).

On to `COc1cc(NC(=O)COc2ccc([N+](=O)[O-])cc2)ccc1NC(=O)c1ccco1`, for which, in [22], the IC50 is 33.6 µM (inactive).

For `C/C(CC(=O)Nc1ccc(F)cc1)=N\NC(=O)c1ccccn1`, the half-maximal activity concentration (AC50) in [5] is 89.2 µM (active).
